The text below walks through data of US20100160369A1, “S1P1 Agonists and Methods of Making And Using” (EXELIXIS, INC., priority 2008, published 2010).

This experiment addresses S1P1 (Homo sapiens, UniProt P21453). Description: Tango β-arrestin Recruitment Assay in U2OS cells (Assay 2b). It is filed as cell-based. On the set-up: linker with TEV protease (N1a) cleavage site (C). The settings on record: Tango β-arrestin Recruitment Assay. From the text: For the Tango™ β-arrestin recruitment assay, the cytoplasmic C-terminus of S1P1 is tethered to the tTA transcriptional activator with a linker that contains a cleavage site for the N1a protease from tobacco etch virus (TEV protease). The C-terminus of the human β-arrestin2 protein is fused to TEV protease. Binding of an agonist recruits the β-arrestin-TEV fusion protein to the receptor resulting in cleavage of the linker and release of tTA to enter the nucleus and subsequently activate a tTA-dependent luciferase reporter gene.
Alternatively, U2OS cells expressing the reporter gene and S1P1 (Invitrogen) were added to the wells of a 384-well white opaque bottom assay plate (PerkinElmer) at […] per well. The cells were serum starved for 48 h in Freestyle medium (Invitrogen). Test compounds were tested at maximum concentrations of 1 μM for the agonist assay. Compounds were diluted in DMSO (10 concentration points, 3-fold each) and added to the assay plate at a 1% final DMSO concentration. The efficacy control was 1 μM S1P (Avanti). For each compound, there were duplicate assay plates and each assay plate had duplicate wells per concentration point. The plate was incubated overnight at 37° C. The GeneBLAzer β-lactamase assay reagent (Invitrogen) was added and the plates were incubated for an additional 2 h at room temperature. Fluorescence was measured using an EnVision plate reader (PerkinElmer, Waltham, Mass.) at an excitation wavelength of 409 nm and emission wavelengths of 460 nm and 530 nm. The emission intensity at each wavelength was background subtracted against wells containing medium only and the F460 nm/F530 nm ratio determined for each concentration of the test compounds. Percent activity was calculated as [(test compound ratio−DMSO ratio)/(positive control ratio−DMSO ratio)*100], where the positive control and DMSO ratios are from cells incubated with the efficacy control 1 μM S1P and 1% DMSO, respectively. The percent activities were plotted against compound concentration to determine EC50 using XLFit (IDBS).
Assay 1 is the CNG cAMP Assay as described in Biological Example 1. Assay 2a and 2b are the Tango™ β-arrestin Recruitment Assay in HEK293 and U2OS cells, respectively, as described in Biological Example 2. Assay 3a is the hS1P1R GTPγS Binding Assay as described in Biological Example 3. Assay 3b is the GTP-Eu Binding Assay as described in Biological Example 3. EC50's were measured unless otherwise noted. […] In the table, “nt” means the Compound was not tested and “no” means the compound was tested but had no measurable activity under the assay conditions employed.
(In general: Activated receptors often draw arrestin, which recruitment assays turn into a signal.)

SMILES strings stand for the structures. Where two headings read alike, the source gives them in different places.

S1P1, sequence (P21453 whole entry, the tested form may be a part): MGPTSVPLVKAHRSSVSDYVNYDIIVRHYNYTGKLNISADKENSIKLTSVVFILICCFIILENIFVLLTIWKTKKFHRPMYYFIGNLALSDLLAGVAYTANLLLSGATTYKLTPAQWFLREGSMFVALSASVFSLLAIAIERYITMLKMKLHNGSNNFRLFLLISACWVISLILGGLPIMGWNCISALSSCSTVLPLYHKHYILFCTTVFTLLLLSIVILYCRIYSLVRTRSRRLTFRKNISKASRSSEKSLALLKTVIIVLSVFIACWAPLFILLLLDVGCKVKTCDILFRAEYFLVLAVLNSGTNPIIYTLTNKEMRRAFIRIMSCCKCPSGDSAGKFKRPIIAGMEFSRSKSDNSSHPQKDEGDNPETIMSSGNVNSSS
S1P1, sequence (P32121 whole entry partner, the tested form may be a part): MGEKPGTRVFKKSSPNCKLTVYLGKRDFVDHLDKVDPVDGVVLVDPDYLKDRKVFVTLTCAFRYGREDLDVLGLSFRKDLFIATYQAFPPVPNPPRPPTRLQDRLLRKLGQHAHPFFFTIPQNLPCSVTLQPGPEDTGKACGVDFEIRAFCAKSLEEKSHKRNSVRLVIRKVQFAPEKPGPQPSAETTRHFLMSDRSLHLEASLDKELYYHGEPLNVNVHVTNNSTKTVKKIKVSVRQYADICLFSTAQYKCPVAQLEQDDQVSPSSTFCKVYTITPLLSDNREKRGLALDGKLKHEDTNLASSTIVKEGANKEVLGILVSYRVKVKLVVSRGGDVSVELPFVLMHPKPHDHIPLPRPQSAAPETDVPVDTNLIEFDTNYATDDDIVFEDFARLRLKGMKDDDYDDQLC

For `CC1(C)OC[C@@H](COc2cc(Cl)c(-c3noc(-c4cn5cc(C(F)(F)F)cc(Cl)c5n4)n3)cc2Cl)O1` [Example 304, 8-chloro-2-{3-[2,5-dichloro-4-({[(4R)-2,2-dimethyl-1,3-dioxolan-4-yl]methyl}oxy)phenyl]-1,2,4-oxadiazol-5-yl}-6-(trifluoromethyl)imidazo[1,2-a]pyridine], the EC50 – broadly, the midpoint of the concentration-response curve – (read-out: Assay 2b EC50) is no more than 0.1 µM. As for `CC(=O)COc1cc(Cl)c(-c2noc(-c3cn4cc(C(F)(F)F)cc(Br)c4n3)n2)cc1Cl` [Example 305, 1-[(4-{5-[8-bromo-6-(trifluoromethyl)imidazo[1,2-a]pyridin-2-yl]-1,2,4-oxadiazol-3-yl}-2,5-dichlorophenyl)oxy]propan-2-one], the EC50 (read-out: Assay 2b EC50) is no more than 0.1 µM. As to `O=C(O)C1CC1c1cc(Cl)c(-c2noc(-c3cn4cc(C(F)(F)F)cc(Br)c4n3)n2)cc1Cl` (centres unmarked) [Example 306, 2-(4-{5-[8-bromo-6-(trifluoromethyl)imidazo[1,2-a]pyridin-2-yl]-1,2,4-oxadiazol-3-yl}-2,5-dichlorophenyl)cyclopropanecarboxylic acid], under “read-out: Assay 2b EC50”, the EC50 was no more than 0.1 µM. In the case of `OCC(CO)Oc1cc(Cl)c(-c2noc(-c3cn4cc(C(F)(F)F)cc(Cl)c4n3)n2)cc1Cl` [Example 307, 2-[(2,5-dichloro-4-{5-[8-chloro-6-(trifluoromethyl)imidazo[1,2-a]pyridin-2-yl]-1,2,4-oxadiazol-3-yl}phenyl)oxy]propane-1,3-diol], the EC50 (read-out: Assay 2b EC50) was no more than 0.1 µM. Regarding `OCCNc1cc(Cl)c(-c2noc(-c3cn4cc(C(F)(F)F)cc(Cl)c4n3)n2)cc1F` [Example 308, 2-[(5-chloro-4-{5-[8-chloro-6-(trifluoromethyl)imidazo[1,2-a]pyridin-2-yl]-1,2,4-oxadiazol-3-yl}-2-fluorophenyl)amino]ethanol], the EC50 (read-out: Assay 2b EC50) is no more than 0.1 µM. `N[C@@H](CO)COc1cc(Cl)c(-c2nnc(-c3cn4cc(C(F)(F)F)ccc4n3)s2)cc1F` [Example 309, (2S)-2-amino-3-[(5-chloro-2-fluoro-4-{5-[6-(trifluoromethyl)imidazo[1,2-a]pyridin-2-yl]-1,3,4-thiadiazol-2-yl}phenyl)oxy]propan-1-ol]: under “read-out: Assay 2b EC50”, the EC50 is no more than 0.1 µM. On to `COc1ccc2nc(-c3nnc(-c4cc(F)c(OC[C@@H](N)CO)cc4Cl)s3)cn2c1` [Example 310, (2S)-2-amino-3-[(5-chloro-2-fluoro-4-{5-[6-(methyloxy)imidazo[1,2-a]pyridin-2-yl]-1,3,4-thiadiazol-2-yl}phenyl)oxy]propan-1-ol], for which the concentration for a half-maximal effect (EC50) (read-out: Assay 2b EC50) was no more than 0.1 µM. As to `OCC(F)(F)COc1cc(Cl)c(-c2noc(-c3cn4cc(C(F)(F)F)cc(Cl)c4n3)n2)cc1Cl` [Example 311, 3-[(2,5-dichloro-4-{5-[8-chloro-6-(trifluoromethyl)imidazo[1,2-a]pyridin-2-yl]-1,2,4-oxadiazol-3-yl}phenyl)oxy]-2,2-difluoropropan-1-ol], the EC50 (read-out: Assay 2b EC50) is no more than 0.1 µM. Still for that read-out and setting: under `CC(O)COc1cc(Cl)c(-c2noc(-c3cn4cc(C(F)(F)F)cc(Br)c4n3)n2)cc1Cl` (centres unmarked) [Example 316, 1-[(4-{5-[8-bromo-6-(trifluoromethyl)imidazo[1,2-a]pyridin-2-yl]-1,2,4-oxadiazol-3-yl}-2,5-dichlorophenyl)oxy]propan-2-ol] stands no more than 0.1 µM.

For the compound `COCC(O)COc1cc(Cl)c(-c2noc(-c3cn4cc(C(F)(F)F)cc(Cl)c4n3)n2)cc1Cl` (centres unmarked) [Example 318, 1-[(2,5-dichloro-4-{5-[8-chloro-6-(trifluoromethyl)imidazo[1,2-a]pyridin-2-yl]-1,2,4-oxadiazol-3-yl}phenyl)oxy]-3-(methyloxy)propan-2-ol], under “read-out: Assay 2b EC50”, the EC50 was no more than 0.1 µM.

Turning to `COC(=O)C(C)(O)COc1cc(Cl)c(-c2noc(-c3cn4cc(C(F)(F)F)cc(Cl)c4n3)n2)cc1Cl` (centres unmarked) [Example 319, methyl 3-[(2,5-dichloro-4-{5-[8-chloro-6-(trifluoromethyl)imidazo[1,2-a]pyridin-2-yl]-1,2,4-oxadiazol-3-yl}phenyl)oxy]-2-hydroxy-2-methylpropanoate], the EC50 (footnote 1: Relative EC50 was measured, read-out: Assay 2b relative EC50) lay within 0.1 to 0.5 µM.
